Source: patent publication US4992439A, “Pyridazine carboxylic acids and esters” (Bristol-Myers Squibb Company, priority 1990, dated 1991)
Values after ≈ are worked out from the molar mass of the structure shown.

Tested on: human platelet aggregation (ADP-induced)
Format: cell-based
Conditions: human platelet rich plasma; ADP final concentration 0.5 mcg/mL; compounds in DMSO; read-out: Inhibition of Human Platelet Aggregation, IC50 vs. ADP
Protocol: The aggregometer method of Born, C.V.R., J. Physiol., (London), 1962, 162, 67-68, as modified by Mustard, J. F., et al., J. Lab. Clin. Med. 1964, 64, 548-599 was used to assess the in vitro activity of the various compounds as to the inhibition of adenosine diphosphate (ADP) and collagen-induced platelet aggregation. The human volunteer donor's arm is cleansed with 70% ethyl alcohol. A sterile 20 ml syringe and needle are used to withdraw 20 ml of blood. The blood is immediately added to a test tube containing 3.8% sodium citrate to prevent clotting (1 part citrate to 9 parts blood).
Platelet rich plasma (PRP) was separated by centrifugation for 10 minutes at 1000 rpm (140 xg) from citrated (3.8%) human blood. All glassware used for preparation of PRP is silicon treated. ADP in final concentration of 0.5 mcg/mL or 0.05 mL of a collagen suspension prepared according to the method described by Evans, G., et al., J. Exp. Med., 1968, 128, 877-894 was used to induce aggregation. The various compounds tested were dissolved in dimethylsulfoxide (DMSO) so that 5 mcl added to the platelet rich plasma would yield the desired test concentration. Vehicle control trials were done and compared with aggregation induced in platelet rich plasma containing various concentrations of the test compounds. Dose response curves were obtained and Inhibitor Concentration (IC50) values calculated.

**Q.** Which IC50 does the source give for COC(=O)COc1cccc(CCn2nc(-c3ccccc3)c(-c3ccccc3)cc2=O)c1 [Example 5, Methyl [3-[2-(1,6-dihydro-6-oxo-3,4-diphenyl-1-pyridazinyl)ethyl]phenoxy]acetate] here?
**A.** Its IC50 is 0.75 µg/mL (≈ 1.7 µM).

**Q.** Which IC50 does the source give for O=C(O)CCCCCCCn1nc(-c2ccccc2)c(-c2ccccc2)cc1=O [Example 4, 6-Oxo-3,4-diphenyl-1(6H)-pyridazinyloctanoic Acid] here?
**A.** The IC50 was 1.6 µg/mL (≈ 4.1 µM).

**Q.** For O=C(O)COc1cccc(CCn2nc(-c3ccccc3)c(-c3ccccc3)cc2=O)c1 [Example 6, [3-[2-(1,6-Dihydro-6-oxo-3,4-diphenyl-1-pyridazinyl)ethyl]phenoxy]acetic Acid], which IC50 is on record?
**A.** The IC50 was 1 µg/mL (≈ 2.34 µM).

**Q.** How did the IC50 turn out when COC(=O)CCCCCCCn1nc(-c2ccccc2)c(-c2ccccc2)cc1=O [Example 3, Methyl 6-Oxo-3,4-diphenyl-1(6H)pyridazinyloctanoate] was run?
**A.** The IC50 was 7.7 µg/mL (≈ 19 µM).

**Q.** O=C(O)CCCCCCCCn1nc(-c2ccccc2)c(-c2ccccc2)cc1=O [Example 2, 6-Oxo-3,4-diphenyl-1(6H)-pyridazinenonanoic acid] was tested. Which IC50 did it give?
**A.** The IC50 was 2.9 µg/mL (≈ 7.17 µM).

**Q.** COC(=O)CCCCCCCCn1nc(-c2ccccc2)c(-c2ccccc2)cc1=O [Example 1, Methyl 6-oxo-3,4-diphenyl-1(6H)-pyridazinenonanoate] was tested. Which IC50 did it give?
**A.** The IC50 was 21 µg/mL (≈ 50.2 µM).
